Data from patent US11267824B2, “Inhibitors of indoleamine 2,3-dioxygenase and/or tryptophan 2,3-dioxygenase” (IDORSIA PHARMACEUTICALS LTD, priority 2017, dated 2022).

Assays:
[1] = biological target: Recombinant human TDO comprising amino acids 19-407 (Homo sapiens (Human), UniProt P48775); assay: TDO2 enzymatic assay (TDO inhibitory activity); type: biochemical; conditions: 15 nM enzyme, 200 μM L-tryptophan, pH7, 30 min pre-incubation, NFK quantified by LCMS; mean values if measured multiple times; read-out: hTDO activity (IC50 in nM)
Procedure: 2) Testing Compounds for TDO Inhibitory Activity in a TDO2 Enzymatic Assay:
Recombinant human TDO comprising amino acids 19-407 with a N-terminal hexahistidine tag expressed in E. coli and purified to homogeneity is incubated at a final concentration of 15 nM in assay buffer consisting of 75 mM phosphate buffer at pH7 supplemented with 100 μM ascorbic acid, 50 U/ml Catalase, 0.01% BSA, and 0.01% Tween 20 (protocol modified from Seegers et al, JBS 2014). Example compounds are serially diluted in DMSO, further diluted in phosphate buffer, and added to the reaction mixture at final concentrations ranging from 10 μM to 0.5 nM. The final DMSO concentration is 0.6%. Following a pre-incubation of 30 minutes at RT, the reaction is started by the addition of L-tryptophan at a final concentration of 200 μM in assay buffer. After 30 minutes of incubation at RT, 3 μL of the reaction mixture are transferred to a 384 deep well plate containing 25 μL of deionized water. 100 μl of 200 nM L-Tryptophan-(indole-d5) in cold 100% methanol are added followed by a 10 minutes centrifugation at 4,000 rpm at 4° C. An additional 75 μL of deionized water are then added and followed by a 10 minutes centrifugation at 4,000 rpm at 4° C. The product of the reaction N′-Formylkynurenine (NFK) is quantified by LCMS and normalized to the L-Tryptophan-(indole-d5) signal. Samples with 0.6% DMSO (0% effect) and a TDO/IDO inhibitor (100% effect) are used as control samples to set the parameters for the non-linear regression necessary for the determination of the half-maximal inhibitory concentration (IC50) for each compound. For each compound concentration the percentage of activity compared to 0% and 100% effect is calculated as average±STDEV (each concentration measured in duplicate). IC50 values and curves are generated with XLfit software (IDBS) using Dose-Response One Site model 203 (four parameter logistic curve model). When compounds are measured multiple times, mean values are given.

[2] = biological target: Recombinant full-length human IDO1 (Homo sapiens (Human), UniProt P14902); assay: IDO1 enzymatic assay (IDO inhibitory activity); type: biochemical; conditions: 2 nM enzyme, 5 μM L-tryptophan, pH6.5, 30 min pre-incubation, NFK quantified by LCMS; mean values if measured multiple times; read-out: hIDO activity (IC50 in nM)
Procedure: 1) Testing Compounds for IDO Inhibitory Activity in an IDO1 Enzymatic Assay:
Recombinant full-length human IDO1 with a N-terminal hexahistidine tag expressed in E. coli and purified to homogeneity is incubated at a final concentration of 2 nM in assay buffer consisting of 37.5 mM phosphate buffer at pH6.5 supplemented with 10 mM sodium L-ascorbate, 0.45 μM methylene blue, 50 U/ml catalase, 0.01% BSA, and 0.01% Tween 20 (protocol modified from Seegers et al, JBS 2014). Example compounds are serially diluted in DMSO, further diluted in phosphate buffer, and added to the enzyme at final concentrations ranging from 10 μM to 0.5 nM. The final DMSO concentration is 0.6%. Following a pre-incubation of 30 minutes at RT, the reaction is started by the addition of L-tryptophan at a final concentration of 5 μM in assay buffer. After 30 minutes of incubation at RT, 3 μL of the reaction mixture are transferred to a 384 deep well plate containing 25 μL of deionized water. 100 μl of 200 nM L-Tryptophan-(indole-d5) in cold 100% methanol are added followed by a 10 minutes centrifugation at 4,000 rpm at 4° C. An additional 75 μL of deionized water are then added and followed by a 10 minutes centrifugation at 4,000 rpm at 4° C. The product of the reaction N′-Formylkynurenine (NFK) is quantified by LCMS and normalized to the L-Tryptophan-(indole-d5) signal. Samples with 0.6% DMSO (0% effect) and a TDO/IDO inhibitor (100% effect) are used as control samples to set the parameters for the non-linear regression necessary for the determination of the half-maximal inhibitory concentration (IC50) for each compound. For each compound concentration the percentage of activity compared to 0% and 100% effect is calculated as average ±STDEV (each concentration measured in duplicate). IC50 values and curves are generated with XLfit software (IDBS) using Dose-Response One Site model 203 (four parameter logistic curve model). When compounds are measured multiple times, mean values are given.

Recombinant human TDO comprising amino acids 19-407, sequence (P48775 19-406 limits assumed): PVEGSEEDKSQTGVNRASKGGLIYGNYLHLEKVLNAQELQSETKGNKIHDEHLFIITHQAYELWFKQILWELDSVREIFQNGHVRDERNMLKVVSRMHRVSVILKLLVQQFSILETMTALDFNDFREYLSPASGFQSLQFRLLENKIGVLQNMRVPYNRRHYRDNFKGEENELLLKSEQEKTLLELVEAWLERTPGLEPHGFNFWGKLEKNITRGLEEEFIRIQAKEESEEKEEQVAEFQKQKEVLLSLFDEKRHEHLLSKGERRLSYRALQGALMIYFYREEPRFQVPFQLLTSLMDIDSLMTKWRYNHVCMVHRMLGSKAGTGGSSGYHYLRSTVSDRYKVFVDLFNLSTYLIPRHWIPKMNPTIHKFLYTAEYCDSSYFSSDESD
Recombinant full-length human IDO1, sequence (P14902 whole entry): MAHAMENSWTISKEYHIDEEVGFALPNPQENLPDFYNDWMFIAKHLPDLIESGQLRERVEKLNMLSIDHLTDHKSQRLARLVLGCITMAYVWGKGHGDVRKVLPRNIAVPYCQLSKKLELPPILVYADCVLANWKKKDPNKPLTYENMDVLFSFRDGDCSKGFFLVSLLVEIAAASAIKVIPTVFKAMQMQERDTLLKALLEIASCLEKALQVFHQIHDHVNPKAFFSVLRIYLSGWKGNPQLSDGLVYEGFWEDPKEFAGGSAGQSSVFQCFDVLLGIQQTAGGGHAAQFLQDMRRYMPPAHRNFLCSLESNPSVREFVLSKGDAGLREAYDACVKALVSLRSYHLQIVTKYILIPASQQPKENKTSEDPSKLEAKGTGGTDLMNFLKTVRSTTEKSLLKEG

Row | Structure (SMILES) | IC50 [1] | IC50 [2]
1 | OC(c1ccccc1)c1c(C2CC2)sc2cncn12 (racemic) [Example 50, rac-(2-Cyclopropyl-imidazo[5,1-b]thiazol-3-yl)-phenyl-methanol] | 989 nM | 50.5 nM
2 | Cc1ccc(C(O)c2c(C3CC3)sc3cncn23)cc1 (racemic) [Example 51, rac-(2-Cyclopropyl-imidazo[5,1-b]thiazol-3-yl)-p-tolyl-methanol] | 1460 nM | 48.4 nM
3 | Cc1cccc(C(O)c2c(C3CC3)sc3cncn23)c1 (racemic) [Example 52, rac-(2-Cyclopropyl-imidazo[5,1-b]thiazol-3-yl)-m-tolyl-methanol] | 22.3 nM | 64.8 nM
4 | CCc1ccc(C(O)c2c(C3CC3)sc3cncn23)cc1 (racemic) [Example 53, rac-(2-Cyclopropyl-imidazo[5,1-b]thiazol-3-yl)-(4-ethyl-phenyl)-methanol] | 1530 nM | 60.1 nM
5 | CCc1cccc(C(O)c2c(C3CC3)sc3cncn23)c1 (racemic) [Example 54, rac-(2-Cyclopropyl-imidazo[5,1-b]thiazol-3-yl)-(3-ethyl-phenyl)-methanol] | 1850 nM | 120 nM
6 | COc1ccc(C(O)c2c(C3CC3)sc3cncn23)cc1 (racemic) [Example 55, rac-(2-Cyclopropyl-imidazo[5,1-b]thiazol-3-yl)-(4-methoxy-phenyl)-methanol] | 2270 nM | 86.9 nM
7 | COc1cccc(C(O)c2c(C3CC3)sc3cncn23)c1 (racemic) [Example 56, rac-(2-Cyclopropyl-imidazo[5,1-b]thiazol-3-yl)-(3-methoxy-phenyl)-methanol] | 3310 nM | 251 nM
8 | Cc1sc2cncn2c1C(O)c1cccs1 (racemic) [Example 57, rac-(2-Methyl-imidazo[5,1-b]thiazol-3-yl)-thiophen-2-yl-methanol] | 829 nM | 433 nM
9 | Cc1sc2cncn2c1C(O)c1ccc(N(C)C)cc1 (racemic) [Example 58, rac-(4-Dimethylamino-phenyl)-(2-methyl-imidazo[5,1-b]thiazol-3-yl)-methanol] | > 10200 nM | 1430 nM
10 | OC(Cc1c(Cl)cccc1Cl)c1c(C2CC2)sc2cncn12 (racemic) [Example 60, rac-1-(2-Cyclopropyl-imidazo[5,1-b]thiazol-3-yl)-2-(2,6-dichloro-phenyl)-ethanol] | 455 nM | 287 nM
11 | Cc1ccccc1CC(O)c1c(C2CC2)sc2cncn12 (racemic) [Example 61, rac-1-(2-Cyclopropyl-imidazo[5,1-b]thiazol-3-yl)-2-o-tolyl-ethanol] | 578 nM | 431 nM
12 | COc1cccc(CC(O)c2c(C)sc3cncn23)c1 (racemic) [Example 62, rac-2-(3-Methoxy-phenyl)-1-(2-methyl-imidazo[5,1-b]thiazol-3-yl)-ethanol] | 7160 nM | 3150 nM
13 | OC(Cc1cccc2ccccc12)c1c(C2CC2)sc2cncn12 (racemic) [Example 67, rac-1-(2-Cyclopropyl-imidazo[5,1-b]thiazol-3-yl)-2-naphthalen-1-yl-ethanol] | 3510 nM | 325 nM

Now from value to compound:

Row | IC50 [1] | IC50 [2] | Structure (SMILES)
14 | 907 nM | 25.1 nM | OC(c1c(C2CC2)sc2cncn12)C1CCC1 (racemic) [Example 43, rac-Cyclobutyl-(2-cyclopropyl-imidazo[5,1-b]thiazol-3-yl)-methanol]
15 | 383 nM | 15.8 nM | CC1CCC(C(O)c2c(C3CC3)sc3cncn23)CC1 (racemic) [Example 44, rac-(2-Cyclopropyl-imidazo[5,1-b]thiazol-3-yl)-(4-methyl-cyclohexyl)-methanol]
16 | 583 nM | 35.7 nM | CCC1CCC(C(O)c2c(C3CC3)sc3cncn23)CC1 (racemic) [Example 45, rac-(2-Cyclopropyl-imidazo[5,1-b]thiazol-3-yl)-(4-ethyl-cyclohexyl)-methanol]
17 | 473 nM | 11.4 nM | OC(c1c(C2CC2)sc2cncn12)C1CCCC1 (racemic) [Example 46, rac-Cyclopentyl-(2-cyclopropyl-imidazo[5,1-b]thiazol-3-yl)-methanol]
18 | 638 nM | 50.3 nM | CC1CCC(CC(O)c2c(C3CC3)sc3cncn23)CC1 (racemic) [Example 49, rac-1-(2-Cyclopropyl-imidazo[5,1-b]thiazol-3-yl)-2-(4-methyl-cyclohexyl)-ethanol]
19 | 881 nM | 249 nM | OC(Cc1ccccc1)c1c(C2CC2)sc2cncn12 (racemic) [Example 59, rac-1-(2-Cyclopropyl-imidazo[5,1-b]thiazol-3-yl)-2-phenyl-ethanol]
20 | 564 nM | 27 nM | OC(c1c(C(F)(F)F)sc2cncn12)C1CCCCC1 (racemic) [Example 63, rac-Cyclohexyl-(2-trifluoromethyl-imidazo[5,1-b]thiazol-3-yl)-methanol]
21 | 3180 nM | 69 nM | OC(CC1CCCCC1)c1c(C(F)(F)F)sc2cncn12 (racemic) [Example 64, rac-2-Cyclohexyl-1-(2-trifluoromethyl-imidazo[5,1-b]thiazol-3-yl)-ethanol]
22 | 29.3 nM | 14.4 nM | C=Cc1sc2cncn2c1C(O)C1CCCCC1 (racemic) [Example 68, rac-Cyclohexyl-(2-vinyl-imidazo[5,1-b]thiazol-3-yl)-methanol]
23 | 746 nM | 72.1 nM | OC(c1c(C2CC2)sc2cncn12)C1CCC2(CCCC2)CC1 (racemic) [Example 70, rac-(2-Cyclopropyl-imidazo[5,1-b]thiazol-3-yl)-spiro[4.5]dec-8-yl-methanol]
24 | 263 nM | 28.5 nM | OC(CC1CCC(F)(F)CC1)c1c(C2CC2)sc2cncn12 (racemic) [Example 71, rac-1-(2-Cyclopropyl-imidazo[5,1-b]thiazol-3-yl)-2-(4,4-difluoro-cyclohexyl)-ethanol]
25 | 1470 nM | 102 nM | CC(C)C1CCC(C(O)c2c(C3CC3)sc3cncn23)CC1 (racemic) [Example 72, rac-(2-Cyclopropyl-imidazo[5,1-b]thiazol-3-yl)-(4-isopropyl-cyclohexyl)-methanol]
26 | 3110 nM | 43.7 nM | OC(c1c(C2CC2)sc2cncn12)C1CCC(c2ccccc2)CC1 (racemic) [Example 73, rac-(2-Cyclopropyl-imidazo[5,1-b]thiazol-3-yl)-(4-phenyl-cyclohexyl)-methanol]
27 | 4330 nM | 950 nM | CC(C)(C)C1CCC(CC(O)c2c(C3CC3)sc3cncn23)CC1 (racemic) [Example 74, rac-2-(4-tert-Butyl-cyclohexyl)-1-(2-cyclopropyl-imidazo[5,1-b]thiazol-3-yl)-ethanol]
28 | 772 nM | 43.3 nM | OC(c1c(C2CC2)sc2cncn12)C1CCC(C(F)(F)F)CC1 (racemic) [Example 81, rac-(2-Cyclopropyl-imidazo[5,1-b]thiazol-3-yl)-(4-trifluoromethyl-cyclohexyl)-methanol]
